Assay results published in ChEMBL document CHEMBL1201862, “PubChem BioAssay data set” (2004).
Activity calls are given as the source filed them.

Experiments:
[1] = HEK293T cytotoxicity, dose response, cytotoxicity control for miR-122 modulator project, cell-based, inhibitor set, cherry-pick, set 2 (AID 720697); assay type: functional
[2] = target: T1, Short transient receptor potential channel 4 (Mus musculus, UniProt Q9QUQ5); assay: mouse TRPC4 channel inhibitors, dose response, cell-based, HEK293 TRPC4/mu-opioid, Fluo-4 calcium (AID 434942); assay type: functional;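 also: potency of inhibitors blocking the TRPC4 calcium response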
T1 sequence (Q9QUQ5 whole entry): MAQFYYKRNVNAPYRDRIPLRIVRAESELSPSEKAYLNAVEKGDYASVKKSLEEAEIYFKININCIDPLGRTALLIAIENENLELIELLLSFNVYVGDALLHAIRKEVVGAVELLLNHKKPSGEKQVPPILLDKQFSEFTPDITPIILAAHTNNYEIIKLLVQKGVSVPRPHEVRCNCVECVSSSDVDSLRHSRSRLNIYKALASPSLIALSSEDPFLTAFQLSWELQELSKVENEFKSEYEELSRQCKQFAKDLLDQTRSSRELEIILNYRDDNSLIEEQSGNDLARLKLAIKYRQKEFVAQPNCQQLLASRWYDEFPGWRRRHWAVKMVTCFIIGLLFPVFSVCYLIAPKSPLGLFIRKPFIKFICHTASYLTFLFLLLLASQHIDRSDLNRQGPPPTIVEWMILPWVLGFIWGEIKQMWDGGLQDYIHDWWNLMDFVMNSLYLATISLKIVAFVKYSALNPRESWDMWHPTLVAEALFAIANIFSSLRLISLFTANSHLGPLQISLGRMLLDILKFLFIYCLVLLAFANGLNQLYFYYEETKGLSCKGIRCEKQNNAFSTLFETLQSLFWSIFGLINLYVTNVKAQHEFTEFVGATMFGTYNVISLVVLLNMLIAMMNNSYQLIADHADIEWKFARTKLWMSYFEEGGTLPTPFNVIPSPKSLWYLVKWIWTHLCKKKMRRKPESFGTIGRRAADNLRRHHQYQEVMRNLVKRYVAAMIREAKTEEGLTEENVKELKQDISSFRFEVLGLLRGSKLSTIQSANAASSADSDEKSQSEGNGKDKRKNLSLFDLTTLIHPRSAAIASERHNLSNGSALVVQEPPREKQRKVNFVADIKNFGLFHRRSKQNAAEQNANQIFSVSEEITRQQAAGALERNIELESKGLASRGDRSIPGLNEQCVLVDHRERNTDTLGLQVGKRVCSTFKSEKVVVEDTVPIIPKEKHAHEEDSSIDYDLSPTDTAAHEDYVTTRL

[3] = Luminescence Cell-Based Dose Retest to Confirm Inhibitors of Cancer Stem Cells. [Related pubchem assays (depositor defined):AID2717, AID2721]; assay type: functional; conditions: Homo sapiens
[4] = target: Glyceraldehyde-3-phosphate dehydrogenase (Homo sapiens, UniProt P04406)
Glyceraldehyde-3-phosphate dehydrogenase, sequence (P04406 whole entry): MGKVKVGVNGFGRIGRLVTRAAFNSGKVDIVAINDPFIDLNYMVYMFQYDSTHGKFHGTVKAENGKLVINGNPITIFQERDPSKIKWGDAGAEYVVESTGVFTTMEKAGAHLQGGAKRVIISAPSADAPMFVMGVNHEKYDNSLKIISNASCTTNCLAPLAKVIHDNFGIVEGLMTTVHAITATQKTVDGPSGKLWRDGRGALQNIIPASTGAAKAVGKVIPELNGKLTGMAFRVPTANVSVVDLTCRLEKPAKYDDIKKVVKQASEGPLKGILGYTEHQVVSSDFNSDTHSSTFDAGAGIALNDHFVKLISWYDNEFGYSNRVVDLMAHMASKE

[5] = target: T2, Corticotropin-releasing factor receptor 2/Corticotropin-releasing factor-binding protein (Homo sapiens, UniProt P24387+Q13324); assay: Dose Response confirmation of uHTS hits for small molecule antagonists of the CRF-binding protein and CRF-R2 receptor complex.; assay type: functional; conditions: read-out: IC50_Mean
T2 sequence (Q13324 whole entry): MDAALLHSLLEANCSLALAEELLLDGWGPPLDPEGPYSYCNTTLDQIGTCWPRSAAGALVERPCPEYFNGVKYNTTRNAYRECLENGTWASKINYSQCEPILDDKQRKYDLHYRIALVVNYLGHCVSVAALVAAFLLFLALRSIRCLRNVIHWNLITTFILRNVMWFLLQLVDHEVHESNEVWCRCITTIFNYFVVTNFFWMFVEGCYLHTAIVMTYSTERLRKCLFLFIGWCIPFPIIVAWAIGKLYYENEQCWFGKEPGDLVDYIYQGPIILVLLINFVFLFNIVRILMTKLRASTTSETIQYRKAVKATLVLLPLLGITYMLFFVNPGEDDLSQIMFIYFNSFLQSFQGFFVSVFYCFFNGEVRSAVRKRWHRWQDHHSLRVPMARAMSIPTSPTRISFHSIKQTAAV
T2 sequence (P24387 whole entry): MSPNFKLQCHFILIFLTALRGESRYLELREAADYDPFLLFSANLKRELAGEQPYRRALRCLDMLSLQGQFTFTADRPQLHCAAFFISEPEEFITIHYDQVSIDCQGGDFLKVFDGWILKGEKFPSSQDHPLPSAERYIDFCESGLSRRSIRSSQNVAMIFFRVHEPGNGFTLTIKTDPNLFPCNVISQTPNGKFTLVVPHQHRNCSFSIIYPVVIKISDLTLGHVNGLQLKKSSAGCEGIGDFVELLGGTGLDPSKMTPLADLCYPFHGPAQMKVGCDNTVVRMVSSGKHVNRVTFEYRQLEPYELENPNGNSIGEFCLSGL

[6] = target: T2, Corticotropin-releasing factor receptor 2/Corticotropin-releasing factor-binding protein; assay: activators of CRF receptor 2 with binding protein – uHTS hits, confirmation (AID 602473); assay type: functional; conditions: read-out: EC50_Mean
[7] = test system: BJ; assay: cytotoxicity toward BJ-TERT fibroblasts, dose response, cell-based, RAS-independent, luminescence (AID 1933); assay type: functional; conditions: Homo sapiens
[8] = test system: BJ; assay: cytotoxicity toward BJ-TERT-LT-ST fibroblasts, dose response, cell-based, RAS-independent, luminescence (AID 1935); assay type: functional; conditions: Homo sapiens;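 also: BJ fibroblasts immortalized with TERT plus LT and ST oncogenes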
[9] = cytotoxicity toward DRD oncogenic fibroblasts, dose response, cell-based, non-viral oncogenic, luminescence (AID 1934); assay type: functional; conditions: Homo sapiens
[10] = test system: BJ; assay: cells; assay type: functional, cell-based; conditions: Homo sapiens
[11] = target: T3, Rac GTPase-activating protein 1 (Homo sapiens, UniProt Q9H0H5); assay: MgcRacGAP GTPase-activating activity inhibitors, confirmation, biochemical, ADP Hunter fluorescence, primary and confirmatory (AID 624330); assay type: functional
T3 sequence (Q9H0H5 whole entry): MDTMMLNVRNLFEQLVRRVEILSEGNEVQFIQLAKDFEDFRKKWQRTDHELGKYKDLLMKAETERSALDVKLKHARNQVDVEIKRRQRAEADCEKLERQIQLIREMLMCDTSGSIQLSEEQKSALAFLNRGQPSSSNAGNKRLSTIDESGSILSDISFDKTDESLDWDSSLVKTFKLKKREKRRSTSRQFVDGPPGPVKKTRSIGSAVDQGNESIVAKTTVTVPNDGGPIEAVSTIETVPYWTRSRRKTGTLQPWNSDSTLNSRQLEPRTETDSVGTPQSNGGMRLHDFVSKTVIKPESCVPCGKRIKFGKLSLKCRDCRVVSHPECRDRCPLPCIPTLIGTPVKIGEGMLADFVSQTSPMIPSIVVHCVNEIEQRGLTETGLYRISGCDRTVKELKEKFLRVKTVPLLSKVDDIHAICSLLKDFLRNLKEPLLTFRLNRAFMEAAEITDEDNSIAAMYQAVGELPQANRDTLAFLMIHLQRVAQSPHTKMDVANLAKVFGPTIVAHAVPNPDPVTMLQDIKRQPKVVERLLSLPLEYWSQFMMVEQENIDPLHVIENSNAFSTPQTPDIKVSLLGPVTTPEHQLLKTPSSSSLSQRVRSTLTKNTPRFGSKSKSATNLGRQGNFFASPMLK

[12] = target: T4, High affinity choline transporter 1 (Homo sapiens, UniProt Q9GZV3); assay: CHT inhibitors, dose response, cell-based, 5-point CRC, membrane potential dye (AID 504840); assay type: functional
T4 sequence (Q9GZV3 whole entry): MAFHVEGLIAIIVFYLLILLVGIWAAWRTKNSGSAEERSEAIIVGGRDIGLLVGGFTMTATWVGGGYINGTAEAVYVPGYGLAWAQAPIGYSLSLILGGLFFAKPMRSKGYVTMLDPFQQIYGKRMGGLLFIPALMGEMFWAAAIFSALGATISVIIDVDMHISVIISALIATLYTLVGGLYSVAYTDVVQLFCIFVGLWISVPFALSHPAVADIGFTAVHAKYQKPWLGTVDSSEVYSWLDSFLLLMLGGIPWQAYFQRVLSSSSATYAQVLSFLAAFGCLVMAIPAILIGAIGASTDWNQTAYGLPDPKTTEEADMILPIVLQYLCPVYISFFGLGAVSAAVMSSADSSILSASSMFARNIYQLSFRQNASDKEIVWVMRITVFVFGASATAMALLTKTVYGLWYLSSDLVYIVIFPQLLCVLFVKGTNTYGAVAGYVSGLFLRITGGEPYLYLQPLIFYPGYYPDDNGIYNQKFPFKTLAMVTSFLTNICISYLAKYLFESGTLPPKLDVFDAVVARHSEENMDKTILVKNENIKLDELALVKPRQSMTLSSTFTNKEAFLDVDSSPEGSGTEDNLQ

[13] = cytotoxicity toward NIH3T3 fibroblasts, dose response, counter-screen, cell-based, ATP luminescence, mouse fibroblasts (AID 2010); assay type: functional;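 also: cells exposed to compound for about 90 hours before reading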
[14] = test system: Streptococcus sp. 'group A'; assay: growth inhibition of control SK(-) GAS strain, dose response, counter-screen for streptokinase expression inhibitor project, luminescence, kanamycin, BacTiterGlo, confirmation (AID 1900); assay type: functional, organism-based
[15] = target: Heat shock protein HSP 90-alpha (Homo sapiens, UniProt P07900); assay type: functional, organism-based
[16] = inhibitors of intracellular T. cruzi replication, confirmation, NIH3T3 host cells, beta-gal luminescence (AID 2044); assay type: functional, cell-based;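 also: intracellular parasites grown in NIH/3T3 mouse fibroblasts as host cells; luminescent beta-galactosidase reporter signal from transgenic T. cruzi replicating inside host cells; inhibitors lower the luminescence signal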
[17] = target: T5, Streptokinase A (Streptococcus pyogenes serotype M1, UniProt P10520); assay: S. pyogenes streptokinase expression inhibitors, potency, dose response, plasminogen activation absorbance, OD405 (AID 1914); assay type: functional, Streptococcus pyogenes M1 GAS;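 also: secreted streptokinase activity via plasminogen activation per viability signal from cell pellet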
T5 sequence (P10520 whole entry): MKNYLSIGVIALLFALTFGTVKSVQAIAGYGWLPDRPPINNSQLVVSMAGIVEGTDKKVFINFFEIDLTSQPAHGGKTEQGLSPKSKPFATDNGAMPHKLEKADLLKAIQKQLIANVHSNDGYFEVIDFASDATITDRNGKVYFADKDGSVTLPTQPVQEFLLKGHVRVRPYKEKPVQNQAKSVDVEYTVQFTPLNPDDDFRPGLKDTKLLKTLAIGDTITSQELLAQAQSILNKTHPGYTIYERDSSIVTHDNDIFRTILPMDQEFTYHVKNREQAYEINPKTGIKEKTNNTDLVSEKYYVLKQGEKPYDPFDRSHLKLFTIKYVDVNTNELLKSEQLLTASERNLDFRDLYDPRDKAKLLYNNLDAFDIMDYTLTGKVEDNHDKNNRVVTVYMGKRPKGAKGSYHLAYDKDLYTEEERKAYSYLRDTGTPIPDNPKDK

[18] = test system: Streptococcus; assay: Group A Streptococcus viability loss, dose response, counter-screen for streptokinase expression inhibitor project, luminescence, BacTiterGlo (AID 1915); assay type: functional, organism-based;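 also: potency for reduction of bacterial viability or growth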

## COC(=O)C[C@@H]1CC[C@H]2[C@@H](COc3ccc(NC(=O)c4ccc(C(F)(F)F)cc4)cc3C(=O)N2C)O1
[1]
  AC50: 10 µM (active)

## CCOc1ccc2ccccc2c1CNCCc1ccc(S(N)(=O)=O)cc1
[2]
  EC50: 4.73 µM (active)

## O=C(CN1CCCC1)Nc1ccc(Cl)cc1C(=O)c1ccccc1
[2]
  EC50: 1.5 µM (active)
[3]
  AC50: 16.1 µM (active)

## Cc1ccc(N2C(=O)C(Cl)=C(N3CCN(Cc4ccc5c(c4)OCO5)CC3)C2=O)cc1
[4]
  IC50: > 50 µM (inconclusive)

## Cc1cccc(NC(=O)Nc2ccc3c(c2)C(=O)N(C)[C@H]2CC[C@H](CC(=O)O)O[C@H]2CO3)c1
[1]
  AC50: 10.6 µM (active)

## COc1ccccc1/C=C/C(=O)N1CCOCC1
[5]
  IC50: > 47.1 µM (inactive)
[6]
  EC50: > 53 µM (inactive)

## CCOC(=O)c1ccc(NC(=O)C(=O)NCc2ccco2)cc1
[7]
  EC50: > 150 µM (not active)
[8]
  EC50: > 150 µM (not active)
[9]
  EC50: > 150 µM (not active)
[10]
  EC50: > 150 µM (not active)

## COc1cccc(CNc2ccc(N3CCC(C)CC3)cc2)c1OC
[11]
  IC50: 7.86 µM (active)
[12]
  IC50: 13.2 µM (active)

## CCc1nnc(NC(=O)CSc2nnnn2-c2cccc(C(C)=O)c2)s1
[5]
  IC50: > 47.1 µM (inactive)
[6]
  EC50: > 53 µM (inactive)

## Cc1ccc(NC(=O)c2ncn(CCCNCC3CCCO3)n2)cc1C (centres undefined)
[5]
  IC50: > 47.1 µM (inactive)
[6]
  EC50: > 53 µM (inactive)

## CCCC1CC(C#N)N(N(C)C)C1=C(C#N)C#N (centres undefined)
[5]
  IC50: > 47.1 µM (inactive)
[6]
  EC50: > 53 µM (inactive)

## CCC(C)NC(=O)Cn1cnc2sc(C)c(S(=O)(=O)N3CCCCC3)c2c1=O (centres undefined)
[5]
  IC50: > 47.1 µM (inactive)
[6]
  EC50: > 53 µM (inactive)

## CNc1nc(NCC2CCCCC2)c2sccc2n1
[1]
  AC50: 3.63 µM (active)

## COCCN1CC(=O)N(c2cccc(C)c2C)C(c2ccc(Cl)cc2)C1=O (centres undefined)
[5]
  IC50: > 47.1 µM (inactive)
[6]
  EC50: > 53 µM (inactive)

## O=C1C(Cl)=C(N2CCN(c3ccccc3)CC2)C(=O)N1c1ccnc(Cl)c1
[4]
  IC50: > 50 µM (inconclusive)

## CCOC(=O)C1CN(S(=O)(=O)c2ccccc2)CCN1S(=O)(=O)c1ccccc1 (centres undefined)
[1]
  AC50: 1.54 µM (active)

## CCN(CC)c1nc2ccccc2c(N)c1-c1ccccc1
[2]
  EC50: 2.66 µM (active)

## N#CC1=C2SCC(O)(c3ccccc3)N2C(=O)CC1c1ccccc1 (centres undefined)
[7]
  EC50: 4.26 µM (active)
[8]
  EC50: 3.28 µM (active)
[9]
  EC50: 3.01 µM (active)
[10]
  EC50: 51.4 µM (active)

## Cc1nn2c(NCc3ccccn3)cc(C(C)(C)C)nc2c1-c1ccccc1
[13]
  EC50: > 60 µM (not active)
[14]
  EC50: 3.41 µM (active)
[15]
  AC50: 1.78 µM (active)
[16]
  EC50: 2.21 µM (active)
[17]
  EC50: > 150 µM (not active)
[18]
  EC50: 5.79 µM (active)

## Cc1ccc(C(=O)C(SC(C)(C)C)n2cncn2)cc1 (centres undefined)
[15]
  AC50: 3.99 µM (active)
